The source of these data is patent publication US12331048B2, “Pyrido-[3,4-d]pyridazine amine derivatives useful as NLRP3 inhibitors” (Ventus Therapeutics U.S., Inc., priority 2022, dated 2025).

A short description of data set [1]: Brain levels (kp and kpu,u) after oral administration. It counts as in vivo, CDI mice. The settings on record: mice, 20 mpk PO; for Kp at 24 h / Kpu,u (unbound brain-to-plasma ratio): CDI, mouse, brain / plasma, po, 20 mg/kg. The protocol: The in vivo total brain to plasma ratio was assessed in CDI mice after oral administration of the compound. Blood was collected at several timepoints up to 24 h, and transferred into plastic micro centrifuge tubes with EDTA-K2 as anticoagulant. Blood samples were centrifuged at 4000 g for 5 minutes at 4° C. to obtain plasma, then immediately frozen and stored at −75±15° C. prior to analysis. Animals were terminally anaesthetized with a rising concentration of CO2 gas at about 1 minute. At selected timepoints, whole brains were removed from the skull, rinsed in cold PBS to remove blood, dried with clean gauze, then frozen in liquid nitrogen and kept at −75±15° C. before analysis. At the time of analysis, brain samples were homogenized with PBS by tissue weight (g) to PBS volume (mL) ratio 1:3. Plasma and brain drug levels were quantified by LC/MS/MS on a AB Sciex Triple Quad 5500+ instrument, after separation on a HALO 160A ES-C18, 2.7 μm 2.1-50 mm column. Quantitation was performed using a calibration curve prepared in blank plasma or blank brain homogenate. The software WinNonlin (Phoenix™) was used for pharmacokinetic analysis from the concentrations versus time data, including the AUCinf and AUClast. The Kp ratio (total brain concentration over total plasma concentration) was calculated as (AUCtot,br)/(AUCtot,pl).
The unbound brain exposure was assessed as Kpuu, which is the free brain/free plasma concentration ratio (Cu,br/Cu,pl). The Cu,br/Cu,pl ratios were obtained from in vivo total brain to plasma ratios (Ctot,br/Ctot,pl) by using in vitro determined Fu,br and Fu,pl.
Plasma protein binding and brain homogenate protein binding were measured by equilibrium dialysis in a HTDialysis plate. The dialysis membranes were soaked in ultrapure water for 60 minutes to separate strips, then in 20% ethanol for 20 minutes, finally in dialysis buffer for 20 minutes. The dialysis set up was assembled according to the manufacturer's instruction. Each cell received 150 μL of plasma or brain homogenate spiked with 1 mM of compound, and dialyzed against an equal volume of dialysis buffer (PBS). The dialysis plate was sealed and incubated in an incubator at 37° C. with 5% CO2 at 100 rpm for 6 hours. At the end of incubation, compound concentration was measured in both chambers by LC-MS/MS on a Triple Quad™ 5500 from AB Inc after separation on a XSelect Hss T3 2.5μ (2.1×30 mm) column. Free fraction (Fu) was calculated as (Peak Area Ratio buffer chamber/Peak Area Ratio plasma chamber).
Kpuu was calculated as (AUCtot,br×Fu,br)/(AUCtot,pl×Fu,pl).
The below table also assigns each compound a code for kp and kpu,u values: A or B. According to the code. A represents a value of >0.3 and B represents a value of ≤0.3. […] The kpu,u was then calculated upon correcting this kp value with mouse plasma protein binding and mouse brain homogenates binding. A Kpu,u value >0.3 is brain penetrant, and Kpu,u value less than or equal to 0.3 is not brain penetrant. N.D.=not determined. The corresponding raw kp and kpu,u data is also included.

Another data set concerns the target T1, NLRP3 (Homo sapiens, UniProt Q96P20).
T1 construct: endogenous in cells
The data set can be described thus: Human whole blood (hWB) NLRP3 assay. It counts as cell-based. The following applies: LPS priming 1 μg/ml, ATP activation, read-out: hWB IC50 (raw activity data). As to the method:
Heparin lithium coated tubes were used to collect blood from volunteers. Blood samples were distributed on 96 well plates using 90 μl per well. Priming was performed by adding 5 μl of LPS (O26:B6; Sigma L-2654) at a final concentration of 1 μg/ml for 4.5 hours in a humidified incubator with 37° C., 5% CO2. Thirty minutes prior to NLRP3 activation, 5 μl of a 20× compound solution or vehicle (2% DMSO) was added to each well and plates were incubated on a shaker (450 rpm) in a humidified incubator with 37° C., 5% CO2. Activation was then performed by adding 3.3 μl of a 31×ATP solution per well. At the end of the 30 minutes stimulation, the plates were centrifuged (800 g, 10 min. room temperature) and the plasma from each well was frozen at −80° C. […] levels in the supernatant were analyzed using a mesoscale discovery assay (MSD K151TUK) according to the manufacturers' instructions. Human whole blood was drawn from healthy volunteers after obtaining written informed consent.
Table D assigns each compound a code for potency in the human whole blood (hWB) NLRP3 Assay: A or B. According to the code. […] The corresponding raw activity data is also included.

Data set [2] in a line: Solubility in phosphate buffered solution (PBS, pH 7.4). It counts as physicochemical. The following applies: for solubility at 2 h: phosphate buffered solution (PBS), aqueous buffer, kinetic from dmso stock; for increase in solubility (PBS, pH 7.4) compared to Comparative Example 3: relative to Comparative Example 3 (6.7 uM). As to the method: In additional embodiments, the solubility of compounds of the instant disclosure may be determined following known procedures, such as described in Alsenz and Kansy, Advanced Drug Delivery Reviews (2007) 59:546-567, and Wang et al. J Mass Spectrom. (2000) 35:71-76. For example, the kinetic solubility in physiologically relevant media, such as phosphate buffered solution (PBS, pH 7.4) or simulated gastric fluid (SGF), may be measured using serial dilution and two hour incubation period, followed by filtration, and reported in μM by LC-MS/MS. Thermodynamic solubility in physiologically relevant media may be measured by LC-MS/MS, after a twenty-four hour incubation, followed by filtration, and reported in mg/mL. Optimized solubility may be beneficial for manufacturing and further processing of the compound. Furthermore, optimized solubility allows for a more efficient in vitro analysis of the compound, including data collection around the compound's safety, drug-drug interactions, potency, selectivity, metabolism, and permeability. […]

Setting [3] is: whole brain AUC over 24 h divided by plasma AUC, read-out: kp (code).
[4] abbreviates: whole brain AUC over 24 h divided by plasma AUC, read-out: kp (raw).
[5] abbreviates: kp corrected with mouse plasma protein binding and mouse brain homogenate binding.

Converted amounts (≈) assume the structure as drawn. Like-named read-outs stand apart in the source and are kept apart here.

T1 sequence (Q96P20 whole entry): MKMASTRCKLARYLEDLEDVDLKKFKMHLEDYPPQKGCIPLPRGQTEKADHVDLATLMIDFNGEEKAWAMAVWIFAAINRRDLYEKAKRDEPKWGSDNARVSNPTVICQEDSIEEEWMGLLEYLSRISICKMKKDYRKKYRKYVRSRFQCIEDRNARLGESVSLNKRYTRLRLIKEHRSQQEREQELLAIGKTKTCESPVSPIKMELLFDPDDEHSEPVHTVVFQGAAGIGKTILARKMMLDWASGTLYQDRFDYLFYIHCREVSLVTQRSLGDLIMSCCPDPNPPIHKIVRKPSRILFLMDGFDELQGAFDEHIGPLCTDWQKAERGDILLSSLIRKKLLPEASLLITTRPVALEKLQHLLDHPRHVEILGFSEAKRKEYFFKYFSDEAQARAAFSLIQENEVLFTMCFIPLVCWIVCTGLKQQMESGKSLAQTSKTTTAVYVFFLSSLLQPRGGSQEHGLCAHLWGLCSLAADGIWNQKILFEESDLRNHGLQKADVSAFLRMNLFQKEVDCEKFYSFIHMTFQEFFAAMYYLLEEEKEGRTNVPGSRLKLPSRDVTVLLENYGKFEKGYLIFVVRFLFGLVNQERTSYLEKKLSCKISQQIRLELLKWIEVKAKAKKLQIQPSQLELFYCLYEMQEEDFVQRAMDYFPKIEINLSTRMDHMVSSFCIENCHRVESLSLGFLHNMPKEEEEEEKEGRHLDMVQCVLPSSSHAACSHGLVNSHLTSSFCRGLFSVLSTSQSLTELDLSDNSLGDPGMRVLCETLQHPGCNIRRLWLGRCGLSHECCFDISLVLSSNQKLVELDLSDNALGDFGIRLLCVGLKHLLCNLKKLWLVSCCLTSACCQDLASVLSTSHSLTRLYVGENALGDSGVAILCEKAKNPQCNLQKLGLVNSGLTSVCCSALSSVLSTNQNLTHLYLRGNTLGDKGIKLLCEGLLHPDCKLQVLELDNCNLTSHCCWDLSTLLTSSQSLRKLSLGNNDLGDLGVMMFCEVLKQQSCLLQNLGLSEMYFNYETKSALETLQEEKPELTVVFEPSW

Take `CC1(C)C[C@H](Nc2nnc(-c3ccc(OC(F)F)cc3O)c3ccncc23)CO1` (single isomer, unassigned) [Compound 9*]: the partition ratio (Kp) (as a rule, the ratio of the level in a tissue or fluid to that in plasma or blood) at 24 h in data set [1] (setting [3]) is over 0.3. The concentration ratio (Kp) at 24 h in data set [1] (setting [4]) was 0.4. Also, in data set [1] (setting [5]), the Kpu,u (unbound brain-to-plasma ratio) came out at 0.63 and the “kpu,u (code)” value is reported as “A (A represents a value of >0.3)”. Also, the “kp (code)” value in data set [1] (whole brain AUC over 24 h divided by plasma AUC) is listed as “A (A represents a value of >0.3)”. In addition, the IC50 (usually the concentration that inhibits the measured activity by half) on NLRP3 is 0.26 µM. For the same compound, in data set [2], the concentration in solution (solubility at 2 h) came to 45 µM (≈ 18.1 µg/mL) and the “increase in solubility (PBS, pH 7.4) compared to Comparative Example 3” value (“increase in solubility” for short) was found to be 7 fold.

As for `CC1(C)C[C@@H](Nc2nnc(-c3ccc(OC(F)F)cc3O)c3ccncc23)CO1` (single isomer, unassigned) [Compound 9B*], the Kp at 24 h in data set [1] (setting [3]) was at most 0.3. The concentration ratio (Kp) at 24 h in data set [1] (setting [4]) worked out at 0.24. Further, in data set [1] (setting [5]), the Kpu,u (unbound brain-to-plasma ratio) amounted to 0.52 and the “kpu,u (code)” value was “A (A represents a value of >0.3)”. The IC50 on NLRP3 was found to be 0.061 µM. In data set [2], the solubility – broadly, the concentration that dissolves in the medium under given conditions – at 2 h stood at 45 µM (≈ 18.1 µg/mL) and the “increase in solubility” value was found to be 7 fold.

For the compound `Cc1cc(O)c(-c2nnc(N[C@H]3COC(C)(C)C3)c3cnccc23)c(F)c1` (single isomer, unassigned) [Compound 21*], the partition ratio (Kp) at 24 h in data set [1] (setting [3]) is over 0.3. For the same compound, the Kp at 24 h in data set [1] (setting [4]) was 0.3. Also, in data set [1] (setting [5]), the Kpu,u (unbound brain-to-plasma ratio) was 0.76 and the “kpu,u (code)” value is reported as “A (A represents a value of >0.3)”. In addition, the IC50 on NLRP3 came out at 0.46 µM. Further, in data set [2], the concentration in solution (solubility at 2 h) came to 250 µM (≈ 92.1 µg/mL) and the “increase in solubility” value is 37 fold.

In the case of `Cc1cc(C)c(-c2nnc(N[C@H]3COC(C)(C)C3)c3cnccc23)c(O)c1` (single isomer, unassigned) [Compound 24*], the Kp at 24 h was at most 0.3 in data set [1] (setting [3]) and 0.05 in data set [1] (setting [4]). Besides, on NLRP3, the IC50 worked out at 0.33 µM. The compound also returned a solubility at 2 h in data set [2] of 290 µM (≈ 106 µg/mL). In addition, the “increase in solubility” value in data set [2] turned out to be 43 fold.

In the case of `Cc1cc(O)c(-c2nnc(N[C@H]3COC(C)(C)C3)c3cnccc23)c(Cl)c1` (single isomer, unassigned) [Compound 26*], the Kp at 24 h in data set [1] (setting [3]) is at most 0.3. In addition, the concentration ratio (Kp) at 24 h in data set [1] (setting [4]) was determined as 0.1. Further, in data set [1] (setting [5]), the Kpu,u (unbound brain-to-plasma ratio) was found to be 0.17 and the “kpu,u (code)” value is recorded as “B (B represents a value of ≤0.3)”. The IC50 on NLRP3 is 0.9 µM. Further, in data set [2], the solubility at 2 h was determined as 280 µM (≈ 108 µg/mL) and the “increase in solubility” value came out at 42 fold.

Regarding `CC1(C)C[C@@H](Nc2nnc(-c3ccc(Cl)cc3O)c3ccncc23)CO1` [Comparative Example 3, (R)-5-chloro-2-(4-((5,5-dimethyltetrahydrofuran-3-yl)amino)pyrido[3,4-d]pyridazin-1-yl)phenol, reference compound], the partition ratio (Kp) at 24 h in data set [1] (setting [3]) was over 0.3; in data set [1] (setting [4]) it was 0.4. The “kpu,u (code)” value in data set [1] (setting [5]) is given as “A (A represents a value of >0.3)”. For the same compound, in data set [1] (setting [5]), the “kpu,u (raw)” value was 0.43. This compound returned a solubility at 2 h in data set [2] of 6.7 µM (≈ 2.48 µg/mL).

On to `Cc1ccc(-c2nnc(N[C@H]3COC(C)(C)C3)c3cnccc23)c(O)c1` [Compound 5, (R)-2-(4-((5,5-dimethyltetrahydrofuran-3-yl)amino)pyrido[3,4-d]pyridazin-1-yl)-5-methylphenol], for which the partition ratio (Kp) at 24 h in data set [1] (setting [3]) is over 0.3. Besides, the Kp at 24 h in data set [1] (setting [4]) stood at 0.44. Also, in data set [1] (setting [5]), the Kpu,u (unbound brain-to-plasma ratio) amounted to 0.94 and the “kpu,u (code)” value is listed as “A (A represents a value of >0.3)”. For the same compound, the half-inhibitory concentration (IC50) at NLRP3 is 0.22 µM. Also, in data set [2], the solubility at 2 h was 180 µM (≈ 63.1 µg/mL) and the “increase in solubility” value is recorded as 27 fold.
